Data: patent US6521615B2, “Diagnosing an animal for pyrophosphate gout, osteoporosis, or osteoarthritis by assaying intracellular pyrophosphate content in peripheral blood cells” (The Regents of the University of California, priority 1998, dated 2003)
“Also recorded” adds a separate entry of the source. Where two headings read alike, the source gives them in different places.

System: human peripheral blood lymphocytes (mononuclear cells)
Method: Mononuclear Cell Isolation: For this purpose 5 ml of freshly drawn heparinized blood was layered on 3.0 ml of Histopaque in a 15 ml polypropylene centrifuge tube and centrifuged at room temperature for 20 minutes at 1,000 g. The mononuclear cell layer was then removed from the tube and transferred into a new 15-ml tube. Volume was brought to a total of 5 ml by addition of Hanks buffered salt solution lacking Mg and Ca (HBSS). This suspension of cells was again layered onto 3.0 ml of Histopaque and again centrifuged as before.
Resuspension of the centrifuged cells in 12-ml HBSS was repeated three times, each followed by 10 min centrifugation at a lower g of 250 g, 50 g, and 50 g to remove contaminating platelets which carry substantial PPi.
After decanting the supernatant, the cell pellet was resuspended in 1.0 ml of HBSS for counting in a hemocytometer. After counting, the cell suspension was spun for 10 minutes in a microfuge at 14,000 rpm. After decanting and thoroughly removing the supernatant, 3.0 μl of 0.1 M sodium […] (an alkaline phosphatase inhibitor) were added and the cells were lysed by addition of 100 μl of 1% triton X-100 and vortexing. The lysate is then stored frozen at −20° C. until time of assay.
PPi Assay: The assay of PPi in mononuclear cells in Tables 1 and 2 were done by the luminescent methods (Barshop, B A et al. Analyt Biochem (1991) 197:266-272). […] Each sample was assayed in duplicate and in the presence and absence of added pyrophosphate as a recovery test.
Volunteer two was an adult volunteer who had just been scheduled by the same internist to start the same medication for their hypertension.

Q: Which results are given for `COc1ccc([C@@H]2Sc3ccccc3N(CCN(C)C)C(=O)[C@@H]2OC(C)=O)cc1` [diltiazem]?
A: effect on intracellular concentration of pyrophosphate (PPi) (mononuclear cells of peripheral blood, result in words): lowers the intracellular concentration of pyrophosphate (PPi); also recorded: comparable lowering of mononuclear cells in one of two patients; PPi (subject one (chondrocalcinosis), diltiazem 60 mg/day taken for only one day, collection 03/13/91): 241 pmole/10^6 cells; PPi (subject one (chondrocalcinosis), diltiazem 60 mg/day, collection 05/16/91): 128 pmole/10^6 cells; PPi (subject three (chondrocalcinosis), diltiazem 60 mg/day, collection 09/11/91): 343 pmole/10^6 cells
